Data from patent US9629834B2, “Medicinal composition for inhibiting formation and/or enlargement of cerebral aneurysm or shrinking same” (KYOTO UNIVERSITY, priority 2013, dated 2017).

Key:
[1] = test system: cerebral aneurysm model; assay: Inhibitory effect on formation of cerebral aneurysm in cerebral aneurysm model (EvG staining, size of aneurysm); assay type: in vivo, SD rat; details: 0.03 mg/5 mL or 0.1 mg/5 mL suspension, 5 mL/kg, forced oral, once a day, Day 1 to Day 27; Day 28; FIG. 5
Protocol: A rat model of cerebral aneurysm was prepared according to the method disclosed on the literature by Hashimoto et al. (Surgical Neurology 1978, Vol. 10, p. 3-8). Namely, 50 mg/kg of pentobarbital was administrated intraperitoneally to a 7-week-old male SD rat, and the left common carotid artery and the left renal artery were ligated by using 10-0 nylon thread under anesthesia (this is referred to as the surgery for inducing cerebral aneurysm). From the day after surgery (Day 1), the rat was reared with being fed a high-salt diet. During a rearing period, the rat was given free access to water. Forced oral administration of 0.03 mg/5 mL or 0.1 mg/5 mL of the suspension of Compound 1 to the cerebral aneurysm model was conducted once a day at a dose of 5 mL/kg from the day after surgery, i.e., 1 day after surgery (Day 1) to 27 days after surgery (Day 27). It should be noted that forced oral administration of the 0.5% MC solution (0 mg/5 mL of the suspension of Compound 1) to the cerebral aneurysm model was conducted once a day at a dose of 5 mL/kg. The group of these rats was defined as a vehicle group. 28 Days after surgery (Day 28), the right olfactory artery/anterior cerebral artery bifurcation containing cerebral aneurysm was extirpated and was fixed with 4% paraformaldehyde, and then the solution was replaced with a 30% sucrose solution, and thereafter, the extirpated bifurcation was frozen to prepare a specimen of a frozen section having a thickness of 5 μm, by similar procedures to the steps 1) and 2) of the method of Reference Example 2. This specimen was subjected to EvG staining and the formation of cerebral aneurysm was confirmed. The size of cerebral aneurysm was measured and evaluation was conducted. The maximum diameter (Maximum) represents the maximum distance between internal elastic lamina disruption sites observed by EvG staining, the height “Height” represents the maximum value of height defined as the length of the perpendicular line drawn from the line connecting the two ends of internal elastic lamina, and the mean diameter “Mean” represents the mean value of the maximum diameter and the height. This evaluation was conducted on all the rats (8 or 9 rats) of each of the groups, and the mean value of each of the groups was calculated. The administration of 0.1 mg/5 mL of a suspension of Compound 2 to the cerebral aneurysm model was started on the day of the surgery (Day 0) at a dose of 5 mL/kg, and forced oral administration was conducted once a day until 26 days after surgery (Day 26). The size of cerebral aneurysm was measured by using the protocol of Example 1. […] The size of cerebral aneurysm was measured by using the protocol of Example 1. […] The size of cerebral aneurysm was measured by using the protocol of Example 1.

[2] = test system: cerebral aneurysm model; assay: Inhibitory effect on enlargement of cerebral aneurysm in cerebral aneurysm model; assay type: in vivo, SD rat; details: 0.1 mg/5 mL suspension, forced oral, once a day from Day 7; measured Day 7, Day 28, Day 49; FIG. 8 and FIG. 9
Protocol: A rat model of cerebral aneurysm was prepared according to the method disclosed on the literature by Hashimoto et al. (Surgical Neurology 1978, Vol. 10, p. 3-8). Namely, 50 mg/kg of pentobarbital was administrated intraperitoneally to a 7-week-old male SD rat, and the left common carotid artery and the left renal artery were ligated by using 10-0 nylon thread under anesthesia (this is referred to as the surgery for inducing cerebral aneurysm). From the day after surgery (Day 1), the rat was reared with being fed a high-salt diet. During a rearing period, the rat was given free access to water. The cerebral aneurysm model was reared with being fed a high-salt diet for 7 days from the day of the surgery so that the model formed cerebral aneurysm. 7 Days after surgery (Week 1, Day 7), the diet for the cerebral aneurysm model was replaced with a normal diet, and forced oral administration of the suspension of Compound 1 at a concentration of 0.1 mg/5 mL to the cerebral aneurysm model was conducted once a day. […] 7 Days after surgery (Week 1, Day 7), 28 days after surgery (Week 4, Day 28), and 49 days after surgery (Week 7, Day 49), the right olfactory artery/anterior cerebral artery bifurcation containing cerebral aneurysm was extirpated and the size of cerebral aneurysm (the maximum diameter and the mean diameter) was measured by similar procedures to Example 1.

With `C[C@H](Oc1ccc(-c2nc(-c3ccc4[nH]cnc4c3)no2)cc1C(F)(F)F)C(F)(F)F.Cl` [Compound 1, 5-{5-[3-(trifluoromethyl)-4-{[(2S)-1,1,1-trifluoropropan-2-yl]oxy}phenyl]-1,2,4-oxadiazol-3-yl}-1H-benzimidazole hydrochloride] the “formation of cerebral aneurysm (size: Maximum, Height, Mean)” value [1] was “inhibited the formation of cerebral aneurysm” and the “enlargement of cerebral aneurysm (maximum diameter and mean diameter)” value [2] was “inhibited the enlargement of cerebral aneurysm”.
